Test results taken from ChEMBL document CHEMBL1777782, “Indole 5-carboxamide Thumb Pocket I inhibitors of HCV NS5B polymerase with nanomolar potency in cell-based subgenomic replicons (part 2): central amino acid linker and right-hand-side SAR studies” (Bioorg Med Chem Lett, 2011).
Converted amounts (≈) assume the structure as drawn.

Molecular target: not listed separately
Assay: Inhibition of HCV 1b NS5B RNA dependent RNA polymerase by scintillation proximity assay
Set-up: species or system Hepacivirus hominis
Settings: not given
`CN1CC[C@](NC(=O)c2ccc3c(C4CCCCC4)c(-c4ccccn4)n(C)c3c2)(C(=O)Nc2ccc(/C=C/C(=O)O)cc2)C1` showed an IC50 of 66 nM. In the case of `Cc1c(C(=O)O)sc2ccc(NC(=O)C(C)(C)NC(=O)c3ccc4c(C5CCCCC5)c(-c5ccccn5)n(C)c4c3)cc12`, the IC50 is reported as 35 nM. `Cc1c(C(=O)O)sc2ccc(NC(=O)[C@]3(NC(=O)c4ccc5c(C6CCCCC6)c(-c6ccccn6)n(C)c5c4)CCCNC3)cc12` showed an IC50 of 35 nM. With `Cn1c(-c2ccccn2)c(C2CCCCC2)c2ccc(C(=O)NC(C)(C)C(=O)Nc3ccc(NC(=O)C(=O)O)cc3)cc21` the IC50 was 34 nM. In the case of `Cn1c(-c2ccccn2)c(C2CCCCC2)c2ccc(C(=O)N[C@@]3(C(=O)Nc4ccc(-c5cncnc5)cc4)CCNC3)cc21`, the IC50 is reported as 64 nM. Molecule `Cn1c(-c2ccccn2)c(C2CCCCC2)c2ccc(C(=O)NC3(C(=O)Nc4ccc(/C=C/C(=O)O)cc4)CCNCC3)cc21` has an IC50 of 13 nM. For `CCN1CC[C@@](NC(=O)c2ccc3c(C4CCCCC4)c(-c4ccccn4)n(C)c3c2)(C(=O)Nc2ccc(/C=C/C(=O)O)cc2)C1`, the IC50 was 23 nM. For `Cn1c(-c2ccccn2)c(C2CCCCC2)c2ccc(C(=O)NC(C)(C)C(=O)Nc3ccc4sc(C(=O)O)cc4c3)cc21`, the IC50 was 23 nM. Work on `Cc1c(C(N)=O)sc2ccc(NC(=O)C3(NC(=O)c4ccc5c(C6CCCCC6)c(-c6ccccn6)n(C)c5c4)CCC3)cc12` yielded an IC50 of 86 nM.

Test system: Hepatitis C virus
Assay: Antiviral activity against Hepatitis C virus genotype 1b infected in human Huh-7 cells assessed as inhibition of viral replication after 72 hrs
Assay type: functional, organism-based, Hepacivirus hominis
Settings: Huh-7, 72 h
`CN1CC[C@](NC(=O)c2ccc3c(C4CCCCC4)c(-c4ccccn4)n(C)c3c2)(C(=O)Nc2ccc(/C=C/C(=O)O)cc2)C1` gave an EC50 of 78 nM. With `Cc1c(C(=O)O)sc2ccc(NC(=O)C(C)(C)NC(=O)c3ccc4c(C5CCCCC5)c(-c5ccccn5)n(C)c4c3)cc12` the EC50 was 46 nM. `Cc1c(C(=O)O)sc2ccc(NC(=O)[C@]3(NC(=O)c4ccc5c(C6CCCCC6)c(-c6ccccn6)n(C)c5c4)CCCNC3)cc12` showed an EC50 of 60 nM. `Cn1c(-c2ccccn2)c(C2CCCCC2)c2ccc(C(=O)NC(C)(C)C(=O)Nc3ccc(NC(=O)C(=O)O)cc3)cc21` gave an EC50 of 2500 nM. For `Cn1c(-c2ccccn2)c(C2CCCCC2)c2ccc(C(=O)N[C@@]3(C(=O)Nc4ccc(-c5cncnc5)cc4)CCNC3)cc21`, the EC50 was 130 nM. Molecule `Cn1c(-c2ccccn2)c(C2CCCCC2)c2ccc(C(=O)NC3(C(=O)Nc4ccc(/C=C/C(=O)O)cc4)CCNCC3)cc21` has an EC50 of 2000 nM. `CCN1CC[C@@](NC(=O)c2ccc3c(C4CCCCC4)c(-c4ccccn4)n(C)c3c2)(C(=O)Nc2ccc(/C=C/C(=O)O)cc2)C1` showed an EC50 of 50 nM. Molecule `Cn1c(-c2ccccn2)c(C2CCCCC2)c2ccc(C(=O)NC(C)(C)C(=O)Nc3ccc4sc(C(=O)O)cc4c3)cc21` has an EC50 of 88 nM. `Cc1c(C(N)=O)sc2ccc(NC(=O)C3(NC(=O)c4ccc5c(C6CCCCC6)c(-c6ccccn6)n(C)c5c4)CCC3)cc12` gave an EC50 of 76 nM.

Test system: not listed separately
Assay: Half life in human liver microsomes at 10 uM
Settings: liver microsomes
For `Cc1c(C(=O)O)sc2ccc(NC(=O)C(C)(C)NC(=O)c3ccc4c(C5CCCCC5)c(-c5ccccn5)n(C)c4c3)cc12`, the half-life at 10 µM was 0.567 h. `Cn1c(-c2ccccn2)c(C2CCCCC2)c2ccc(C(=O)N[C@@]3(C(=O)Nc4ccc(-c5cncnc5)cc4)CCNC3)cc21` gave a half-life at 10 µM of 1.07 h. `CCN1CC[C@@](NC(=O)c2ccc3c(C4CCCCC4)c(-c4ccccn4)n(C)c3c2)(C(=O)Nc2ccc(/C=C/C(=O)O)cc2)C1` gave a half-life at 10 µM of 1.02 h. `Cn1c(-c2ccccn2)c(C2CCCCC2)c2ccc(C(=O)NC(C)(C)C(=O)Nc3ccc4sc(C(=O)O)cc4c3)cc21` gave a half-life at 10 µM of 0.817 h. With `Cc1c(C(N)=O)sc2ccc(NC(=O)C3(NC(=O)c4ccc5c(C6CCCCC6)c(-c6ccccn6)n(C)c5c4)CCC3)cc12` the half-life at 10 µM was 1.18 h.

Same assay, conditions: microsomes
Molecule `CN1CC[C@](NC(=O)c2ccc3c(C4CCCCC4)c(-c4ccccn4)n(C)c3c2)(C(=O)Nc2ccc(/C=C/C(=O)O)cc2)C1` has a half-life at 10 µM of 0.767 h. With `Cc1c(C(=O)O)sc2ccc(NC(=O)[C@]3(NC(=O)c4ccc5c(C6CCCCC6)c(-c6ccccn6)n(C)c5c4)CCCNC3)cc12` the half-life at 10 µM was 1.55 h.

Test system: not listed separately
Assay: Permeability across apical to basolateral side in human Caco2 cells
Settings: Caco-2
In the case of `CN1CC[C@](NC(=O)c2ccc3c(C4CCCCC4)c(-c4ccccn4)n(C)c3c2)(C(=O)Nc2ccc(/C=C/C(=O)O)cc2)C1`, the Papp A→B is reported as 7.8 ×10⁻⁶ cm/s. Work on `Cc1c(C(=O)O)sc2ccc(NC(=O)C(C)(C)NC(=O)c3ccc4c(C5CCCCC5)c(-c5ccccn5)n(C)c4c3)cc12` yielded a Papp A→B of 0.8 ×10⁻⁶ cm/s. Molecule `Cn1c(-c2ccccn2)c(C2CCCCC2)c2ccc(C(=O)N[C@@]3(C(=O)Nc4ccc(-c5cncnc5)cc4)CCNC3)cc21` has a Papp A→B of under 0.1 ×10⁻⁶ cm/s. `CCN1CC[C@@](NC(=O)c2ccc3c(C4CCCCC4)c(-c4ccccn4)n(C)c3c2)(C(=O)Nc2ccc(/C=C/C(=O)O)cc2)C1` showed a Papp A→B of 5.6 ×10⁻⁶ cm/s. `Cn1c(-c2ccccn2)c(C2CCCCC2)c2ccc(C(=O)NC(C)(C)C(=O)Nc3ccc4sc(C(=O)O)cc4c3)cc21` gave a Papp A→B of 0.4 ×10⁻⁶ cm/s.

Test system: not listed separately
Assay: Selectivity ratio for polio virus RNA-dependent RNA polymerase to HCV 1b NS5B RNA dependent RNA polymerase
Settings: not given
Molecule `CN1CC[C@](NC(=O)c2ccc3c(C4CCCCC4)c(-c4ccccn4)n(C)c3c2)(C(=O)Nc2ccc(/C=C/C(=O)O)cc2)C1` has a Ratio of over 150. Molecule `Cc1c(C(=O)O)sc2ccc(NC(=O)C(C)(C)NC(=O)c3ccc4c(C5CCCCC5)c(-c5ccccn5)n(C)c4c3)cc12` has a Ratio of over 150. With `Cn1c(-c2ccccn2)c(C2CCCCC2)c2ccc(C(=O)NC(C)(C)C(=O)Nc3ccc(NC(=O)C(=O)O)cc3)cc21` the Ratio was over 150. Molecule `Cn1c(-c2ccccn2)c(C2CCCCC2)c2ccc(C(=O)N[C@@]3(C(=O)Nc4ccc(-c5cncnc5)cc4)CCNC3)cc21` has a Ratio of over 150. Molecule `Cn1c(-c2ccccn2)c(C2CCCCC2)c2ccc(C(=O)NC3(C(=O)Nc4ccc(/C=C/C(=O)O)cc4)CCNCC3)cc21` has a Ratio of over 150. Molecule `CCN1CC[C@@](NC(=O)c2ccc3c(C4CCCCC4)c(-c4ccccn4)n(C)c3c2)(C(=O)Nc2ccc(/C=C/C(=O)O)cc2)C1` has a Ratio of over 150. `Cn1c(-c2ccccn2)c(C2CCCCC2)c2ccc(C(=O)NC(C)(C)C(=O)Nc3ccc4sc(C(=O)O)cc4c3)cc21` gave a Ratio of over 150. Molecule `Cc1c(C(N)=O)sc2ccc(NC(=O)C3(NC(=O)c4ccc5c(C6CCCCC6)c(-c6ccccn6)n(C)c5c4)CCC3)cc12` has a Ratio of over 150.

Test system: not listed separately
Assay: Selectivity ratio for mammalian DNA-dependent RNA polymerase II to HCV 1b NS5B RNA dependent RNA polymerase
Settings: not given
`CN1CC[C@](NC(=O)c2ccc3c(C4CCCCC4)c(-c4ccccn4)n(C)c3c2)(C(=O)Nc2ccc(/C=C/C(=O)O)cc2)C1` gave a Ratio of over 150. Work on `Cc1c(C(=O)O)sc2ccc(NC(=O)C(C)(C)NC(=O)c3ccc4c(C5CCCCC5)c(-c5ccccn5)n(C)c4c3)cc12` yielded a Ratio of over 150. In the case of `Cn1c(-c2ccccn2)c(C2CCCCC2)c2ccc(C(=O)NC(C)(C)C(=O)Nc3ccc(NC(=O)C(=O)O)cc3)cc21`, the Ratio is reported as over 150. Molecule `Cn1c(-c2ccccn2)c(C2CCCCC2)c2ccc(C(=O)N[C@@]3(C(=O)Nc4ccc(-c5cncnc5)cc4)CCNC3)cc21` has a Ratio of over 150. In the case of `Cn1c(-c2ccccn2)c(C2CCCCC2)c2ccc(C(=O)NC3(C(=O)Nc4ccc(/C=C/C(=O)O)cc4)CCNCC3)cc21`, the Ratio is reported as over 150. For `CCN1CC[C@@](NC(=O)c2ccc3c(C4CCCCC4)c(-c4ccccn4)n(C)c3c2)(C(=O)Nc2ccc(/C=C/C(=O)O)cc2)C1`, the Ratio was over 150. Work on `Cn1c(-c2ccccn2)c(C2CCCCC2)c2ccc(C(=O)NC(C)(C)C(=O)Nc3ccc4sc(C(=O)O)cc4c3)cc21` yielded a Ratio of over 150. `Cc1c(C(N)=O)sc2ccc(NC(=O)C3(NC(=O)c4ccc5c(C6CCCCC6)c(-c6ccccn6)n(C)c5c4)CCC3)cc12` gave a Ratio of over 150.

Test system: not listed separately
Assay: physchem
Settings: phosphate buffer, pH 7.2
With `CN1CC[C@](NC(=O)c2ccc3c(C4CCCCC4)c(-c4ccccn4)n(C)c3c2)(C(=O)Nc2ccc(/C=C/C(=O)O)cc2)C1` the solubility thermodynamic at 24 h was 20 µg/mL (≈ 33 µM). In the case of `Cc1c(C(=O)O)sc2ccc(NC(=O)C(C)(C)NC(=O)c3ccc4c(C5CCCCC5)c(-c5ccccn5)n(C)c4c3)cc12`, the solubility thermodynamic at 24 h is reported as 202 µg/mL (≈ 332 µM). Molecule `Cn1c(-c2ccccn2)c(C2CCCCC2)c2ccc(C(=O)N[C@@]3(C(=O)Nc4ccc(-c5cncnc5)cc4)CCNC3)cc21` has a solubility thermodynamic at 24 h of 9 µg/mL (≈ 15 µM). For `Cn1c(-c2ccccn2)c(C2CCCCC2)c2ccc(C(=O)NC(C)(C)C(=O)Nc3ccc4sc(C(=O)O)cc4c3)cc21`, the solubility thermodynamic at 24 h was 468 µg/mL (≈ 787 µM).
